Data as given in ChEMBL document CHEMBL1201862, “PubChem BioAssay data set” (2004).
Where “and” joins values, the source holds several entries; their conditions need not be identical. Identical values can stand only once.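 Tested at 5 concentrations; 48 h exposure; 96-well plates; endpoints linearly interpolated, else capped at highest concentration. The concentration for 50% growth inhibition is given as GI50.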 Calls of active or inactive are those of the source. No stated cut-off is given here; in the data, active = GI50 up to about 1.1 µM and inactive = higher.

What was measured:
Experiment in all cases: DTP human tumour cell line panel, 48 h
[1] = test system: A549
[2] = test system: BT-549
[3] = test system: DU-145
[4] = test system: EKVX
[5] = test system: HL-60
[6] = test system: Hs-578T
[7] = test system: KM12
[8] = test system: LOX IMVI
[9] = test system: MCF7
[10] = test system: MDA-MB-231
[11] = test system: MOLT-4
[12] = test system: NCI-H460
[13] = test system: RXF 393
[14] = test system: SK-MEL-28
[15] = test system: SK-MEL-5
[16] = test system: SNB-19
[17] = test system: SR
[18] = test system: T47D
[19] = test system: TK-10
[20] = test system: U-251

With `COC1OC(C(=O)CP(=O)(OC)OC)C(OCc2ccccc2)C(OCc2ccccc2)C1OCc1ccccc1` (stereo not drawn) the GI50 [1] was 15.3 µM (inactive) and 15.5 µM (inactive), the GI50 [2] was 17.9 µM (inactive) and 19.5 µM (inactive) and the GI50 [3] was 17.9 µM (inactive) and 16.5 µM (inactive). For the same compound, the GI50 [4] was 15 µM (inactive) and 16.9 µM (inactive), the GI50 [5] was 21.8 µM (inactive) and 18.7 µM (inactive) and the GI50 [6] was 25.6 µM (inactive) and 22.1 µM (inactive). The GI50 [7] was 18.7 µM (inactive) and 18.9 µM (inactive), the GI50 [8] was 17.7 µM (inactive) and 17.2 µM (inactive) and the GI50 [9] was 16.4 µM (inactive). The GI50 [10] was 15.9 µM (inactive) and 16.7 µM (inactive), the GI50 [11] was 13 µM (inactive) and 20.8 µM (inactive) and the GI50 [12] was 15 µM (inactive) and 15.9 µM (inactive). The GI50 [13] was 14.8 µM (inactive) and 12.1 µM (inactive), the GI50 [14] was 16.9 µM (inactive) and 21 µM (inactive) and the GI50 [15] was 14.8 µM (inactive) and 15 µM (inactive). The GI50 [16] was 15.9 µM (inactive) and 16.3 µM (inactive), the GI50 [17] was 16.4 µM (inactive) and 25.4 µM (inactive) and the GI50 [18] was 18 µM (inactive) and 15.5 µM (inactive). The GI50 [19] was 17.1 µM (inactive) and 18.8 µM (inactive) and the GI50 [20] was 16.7 µM (inactive) and 15.6 µM (inactive).

For `CCCCCCCCCCCCCCCCCCN(C)C(COC)COP(=O)([O-])OCC[N+](C)(C)C` (stereo not drawn), the GI50 [1] was 6.68 µM (inactive), the GI50 [2] was 9.18 µM (inactive) and the GI50 [3] was 10.1 µM (inactive). The GI50 [4] was 17.5 µM (inactive), the GI50 [5] was 1.48 µM (inactive) and the GI50 [6] was 3.19 µM (inactive). The GI50 [7] was 1.66 µM (inactive), the GI50 [8] was 4.49 µM (inactive) and the GI50 [9] was 10.1 µM (inactive). The GI50 [10] was 5.73 µM (inactive), the GI50 [11] was 1820 nM (inactive) and the GI50 [12] was 1.78 µM (inactive). The GI50 [13] was 1.57 µM (inactive), the GI50 [14] was 18.5 µM (inactive) and the GI50 [15] was 12.9 µM (inactive). For the same compound, the GI50 [16] was 3.61 µM (inactive), the GI50 [17] was 2.23 µM (inactive) and the GI50 [18] was 18.4 µM (inactive). The GI50 [19] was 1.84 µM (inactive) and the GI50 [20] was 1.97 µM (inactive).

`CC(C)=CC1CC(C)C2(CCC3(C)CC4C(C(=O)CC4(C)O)/C(C=O)=C\CC32)O1` (stereo not drawn) was tested, and the GI50 [1] was 0.0685 µM (active), the GI50 [2] was 0.177 µM (active) and the GI50 [3] was 0.129 µM (active). For the same compound, the GI50 [4] was 0.154 µM (active), the GI50 [5] was < 0.0173 µM (active) and the GI50 [6] was 0.13 µM (active). For the same compound, the GI50 [7] was 0.102 µM (active), the GI50 [8] was 0.0582 µM (active) and the GI50 [9] was 0.0675 µM (active). The GI50 [10] was 0.0968 µM (active), the GI50 [11] was < 15.3 nM (active) and the GI50 [12] was 0.133 µM (active). For the same compound, the GI50 [13] was 0.0373 µM (active), the GI50 [14] was 0.104 µM (active) and the GI50 [15] was 0.216 µM (active). The GI50 [16] was 0.177 µM (active), the GI50 [17] was 0.03 µM (active) and the GI50 [18] was 0.0574 µM (active). For the same compound, the GI50 [19] was 0.0235 µM (active) and the GI50 [20] was 0.0735 µM (active).

With `O=C(O)CCC(C(=O)O)N1C(=O)c2ccccc2C1=O` (stereo not drawn) the GI50 [1] was > 100 µM (inactive), the GI50 [2] was > 100 µM (inactive) and the GI50 [3] was > 100 µM (inactive). For the same compound, the GI50 [4] was > 100 µM (inactive), the GI50 [5] was > 100 µM (inactive) and the GI50 [6] was > 100 µM (inactive). For the same compound, the GI50 [7] was > 100 µM (inactive), the GI50 [8] was > 100 µM (inactive) and the GI50 [9] was > 100 µM (inactive). For the same compound, the GI50 [10] was > 100 µM (inactive), the GI50 [12] was > 100 µM (inactive) and the GI50 [13] was > 100 µM (inactive). For the same compound, the GI50 [14] was > 100 µM (inactive), the GI50 [15] was > 100 µM (inactive) and the GI50 [16] was > 100 µM (inactive). The GI50 [17] was > 100 µM (inactive), the GI50 [18] was > 100 µM (inactive) and the GI50 [19] was > 100 µM (inactive). The GI50 [20] was > 100 µM (inactive).

`CO[C@@H]1C[C@H](OC(N)=O)[C@@H]2C=C[C@@H]3/C=C(C)/C=C/[C@@H](C)[C@H]([C@H](C)[C@H](O)[C@@H](C)NC(C)=O)OC(=O)/C=C/C=C(C)\C=C\[C@]3(C)[C@@H]2C1` was tested, and the GI50 [1] was < 0.01 µM (active), the GI50 [2] was 2.16 µM (inactive) and the GI50 [3] was < 0.01 µM (active). For the same compound, the GI50 [4] was 1.24 µM (inactive), the GI50 [5] was < 0.01 µM (active) and the GI50 [6] was < 0.01 µM (active). For the same compound, the GI50 [7] was < 0.01 µM (active), the GI50 [8] was < 0.01 µM (active) and the GI50 [9] was < 0.01 µM (active). For the same compound, the GI50 [10] was < 0.0316 µM (active), the GI50 [11] was 332 nM (active) and the GI50 [12] was < 0.01 µM (active). For the same compound, the GI50 [13] was < 0.01 µM (active), the GI50 [14] was < 0.01 µM (active) and the GI50 [15] was < 0.01 µM (active). The GI50 [16] was 1.5 µM (inactive), the GI50 [17] was < 0.01 µM (active) and the GI50 [18] was < 0.01 µM (active). The GI50 [20] was < 0.01 µM (active).
